Measured values from patent US12319752B2, “Heparin-binding cationic peptide self-assembling peptide amphiphiles useful against drug-resistant bacteria” (priority 2016, dated 2025).
Residues, ends and D or L forms follow the SMILES beside them. *: point of attachment. Palmitoyl = CCCCCCCCCCCCCCCC(=O)*

Test system: human dermal fibroblasts (HDF)
Test: Cytotoxicity, MTS cell viability assay
Type: cell-based
Settings: HDF, concentrations higher than 20 μM, 24 h
Experimental: To evaluate the cytotoxicity of the peptides, human dermal fibroblasts (HDF) were treated for 24 h, and cell viability was determined via MTS assays (FIG. 13).
Human dermal fibroblast cells (HDF, Detroit 551, ATCC #CCL-110) were cultured in Dulbecco's modified Eagle medium (DMEM; Fisher, Pittsburgh, PA) supplemented with 10% fetal bovine serum (FBS) and 1% penicillin/streptomycin for 24 h. All cells were cultured to 90% confluence in a 37° C., humidified, 5% CO2/95% air environment. Cells at passage numbers of 4-7 were used in these experiments.
The MTS cell viability assay kit (Promega, Madison, WI, USA) was used to determine cytotoxicity of the peptides. First, HDF cells were seeded on a 96-well plate at a cell density of 5,000 cells/well (equal to 15,385 cells/cm^2), and were incubated overnight for cell adhesion. After overnight incubation, the cell medium in each well was replaced by 100 μL of cell culture medium containing various concentrations of peptides (20 μM to 100 μM). The control samples were cells incubated in cell culture medium only. After 24 h, the treatment medium in each well was removed. The cells were washed with phosphate buffered saline (PBS, pH=7.4, Fisher, PA, USA) and 100 μL of fresh cell culture medium was added to each well, followed by the addition of 20 μL of the MTS reagent. After the cells were incubated for 2.5 h, the absorbance was measured at a wavelength of 490 nm by a spectrophotometer (SpectraMax M3, Molecular Devices, Molecular Devices, Sunnyvale, CA, USA). To estimate the cell numbers in each well, a standard curve expressing the linear correlation between different cell densities and optical densities (R^2>0.95) was plotted, and the cell numbers were determined with this standard curve from the OD490 value recorded in each sample. The cell viability of each sample was calculated by: Cell viability=[(cell density per mL of treated sample)/(cell density per mL of control sample)]×100%. Data were expressed by standard error of the mean (±S.E.M.) and N=3, *p<0.05 compared with control samples.

CCCCCCCCCCCCCCCC(=O)N[C@H](C(=O)N[C@H](C(=O)N[C@H](C(=O)N[C@H](C(=O)N[C@@H](CCCCN)C(=O)N[C@@H](CCCCN)C(=O)N[C@@H](CCCCN)C(=O)N[C@@H](CCCCN)C(=O)O)C(C)C)C(C)C)C(C)C)C(C)C [CVK-PA, C16-V4K4 (SEQ ID NO: 1), reference compound] (Palmitoyl-VVVVKKKK-OH)
cell death: over 40%
